Measurements from PubChem BioAssay (NCI).
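Method: 48-hour compound exposure of cells in 96-well plates, five concentrations, linear interpolation of endpoints. At the TGI there is no net growth.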

Tests used:
Test in all cases: NCI-60 cell line screen, 48 h
[1] = system: A498 renal
[2] = system: BT-549 breast
[3] = system: CAKI-1 renal
[4] = system: CCRF-CEM leukemia
[5] = system: COLO 205 colon
[6] = system: DU-145 prostate
[7] = system: HCC-2998 colon
[8] = system: HCT-116 colon
[9] = system: HCT-15 colon
[10] = system: HL-60(TB) leukemia
[11] = system: HOP-62 NSCLC
[12] = system: HS 578T breast
[13] = system: IGROV1 ovarian
[14] = system: K-562 leukemia
[15] = system: KM12 colon
[16] = system: M14 melanoma
[17] = system: MALME-3M melanoma
[18] = system: MCF7 breast
[19] = system: MDA-MB-231 breast
[20] = system: MDA-MB-435
[21] = system: MDA-N
[22] = system: NCI-H226 lung
[23] = system: NCI-H23 lung
[24] = system: NCI-H460 lung
[25] = system: NCI-H522 lung
[26] = system: NCI/ADR-RES ovarian
[27] = system: OVCAR-3 ovarian
[28] = system: OVCAR-4 ovarian
[29] = system: OVCAR-5 ovarian
[30] = system: OVCAR-8 ovarian
[31] = system: PC-3 prostate
[32] = system: RPMI-8226 leukemia
[33] = system: RXF 393 renal
[34] = system: SF-295 CNS
[35] = system: SK-MEL-2 melanoma
[36] = system: SK-MEL-28 melanoma
[37] = system: SK-MEL-5 melanoma
[38] = system: SK-OV-3 ovarian
[39] = system: SN12C renal
[40] = system: SNB-19 CNS
[41] = system: SNB-75 CNS
[42] = system: SR leukemia
[43] = system: T-47D breast
[44] = system: U251 CNS
[45] = system: UACC-62 melanoma
[46] = system: UO-31 renal
[47] = system: 786-0 renal
[48] = system: ACHN renal
[49] = system: EKVX NSCLC
[50] = system: HOP-92 NSCLC
[51] = system: HT29 colon
[52] = system: LOX IMVI melanoma
[53] = system: SF-268 CNS
[54] = system: SW-620 colon
[55] = system: TK-10 renal
[56] = system: UACC-257 melanoma
[57] = system: A549 NSCLC
[58] = system: MOLT-4 leukemia
[59] = system: SF-539 CNS

CN(C)c1ccc(N2C(=S)SC(=Nc3ccccc3)C2=Nc2ccccc2)cc1
TGI [1]: > 100 µM
TGI [2]: > 100 µM
TGI [3]: > 100 µM
TGI [4]: > 100 µM
TGI [5]: > 100 µM
TGI [6]: > 100 µM
TGI [7]: > 100 µM
TGI [8]: > 100 µM
TGI [9]: > 100 µM
TGI [10]: > 100 µM
TGI [11]: > 100 µM
TGI [12]: > 100 µM
TGI [13]: > 100 µM
TGI [14]: > 100 µM
TGI [15]: > 100 µM
TGI [16]: > 100 µM
TGI [17]: > 100 µM
TGI [18]: > 100 µM
TGI [19]: > 100 µM
TGI [20]: > 100 µM
TGI [21]: > 100 µM
TGI [22]: > 100 µM
TGI [23]: > 100 µM
TGI [24]: > 100 µM
TGI [25]: > 100 µM
TGI [26]: > 100 µM
TGI [27]: > 100 µM
TGI [28]: > 100 µM
TGI [29]: > 100 µM
TGI [30]: > 100 µM
TGI [31]: > 100 µM
TGI [32]: > 100 µM
TGI [33]: > 100 µM
TGI [34]: > 100 µM
TGI [35]: > 100 µM
TGI [36]: > 100 µM
TGI [37]: > 100 µM
TGI [38]: > 100 µM
TGI [39]: > 100 µM
TGI [40]: > 100 µM
TGI [41]: > 100 µM
TGI [42]: > 100 µM
TGI [43]: > 100 µM
TGI [44]: > 100 µM
TGI [45]: > 100 µM
TGI [46]: > 100 µM

CC1(C)OC2OC(COC(=O)C=[N+]=[N-])C3OC(C)(C)OC3C2O1 (stereo unspecified)
TGI [47]: > 100 µM
TGI [1]: > 100 µM
TGI [48]: > 100 µM
TGI [2]: > 100 µM
TGI [3]: > 100 µM
TGI [4]: > 100 µM
TGI [5]: > 100 µM
TGI [6]: > 100 µM
TGI [49]: > 100 µM
TGI [7]: > 100 µM
TGI [8]: > 100 µM
TGI [9]: > 100 µM
TGI [10]: > 100 µM
TGI [11]: > 100 µM
TGI [50]: > 100 µM
TGI [51]: > 100 µM
TGI [13]: > 100 µM
TGI [14]: > 100 µM
TGI [15]: > 100 µM
TGI [52]: > 100 µM
TGI [17]: > 100 µM
TGI [18]: > 100 µM
TGI [19]: > 100 µM
TGI [20]: > 100 µM
TGI [21]: > 100 µM
TGI [22]: > 100 µM
TGI [23]: > 100 µM
TGI [24]: > 100 µM
TGI [25]: > 100 µM
TGI [27]: > 100 µM
TGI [28]: > 100 µM
TGI [29]: > 100 µM
TGI [31]: > 100 µM
TGI [32]: > 100 µM
TGI [33]: > 100 µM
TGI [53]: > 100 µM
TGI [34]: > 100 µM
TGI [35]: > 100 µM
TGI [36]: > 100 µM
TGI [37]: > 100 µM
TGI [38]: > 100 µM
TGI [39]: > 100 µM
TGI [40]: > 100 µM
TGI [42]: > 100 µM
TGI [54]: > 100 µM
TGI [55]: > 100 µM
TGI [44]: > 100 µM
TGI [56]: > 100 µM
TGI [45]: > 100 µM
TGI [46]: > 100 µM

Cc1cn(C2CC(n3cc(Cn4cc(F)c(=O)[nH]c4=O)nn3)C(CO)O2)c(=O)[nH]c1=O (stereo unspecified)
TGI [47]: > 100 µM
TGI [1]: > 100 µM
TGI [57]: > 100 µM
TGI [48]: > 100 µM
TGI [2]: > 100 µM
TGI [3]: > 100 µM
TGI [4]: > 100 µM
TGI [5]: > 100 µM
TGI [6]: > 100 µM
TGI [49]: > 100 µM
TGI [7]: > 100 µM
TGI [8]: > 100 µM
TGI [9]: > 100 µM
TGI [10]: > 100 µM
TGI [11]: > 100 µM
TGI [50]: > 100 µM
TGI [12]: > 100 µM
TGI [13]: > 100 µM
TGI [15]: > 100 µM
TGI [52]: > 100 µM
TGI [16]: > 100 µM
TGI [17]: > 100 µM
TGI [18]: > 100 µM
TGI [19]: > 100 µM
TGI [20]: > 100 µM
TGI [21]: > 100 µM
TGI [58]: > 100 µM
TGI [22]: > 100 µM
TGI [23]: > 100 µM
TGI [26]: > 100 µM
TGI [27]: > 100 µM
TGI [28]: > 100 µM
TGI [29]: > 100 µM
TGI [30]: > 100 µM
TGI [31]: > 100 µM
TGI [32]: > 100 µM
TGI [33]: > 100 µM
TGI [53]: > 100 µM
TGI [34]: > 100 µM
TGI [59]: > 100 µM
TGI [35]: > 100 µM
TGI [36]: > 100 µM
TGI [37]: > 100 µM
TGI [38]: > 100 µM
TGI [39]: > 100 µM
TGI [40]: > 100 µM
TGI [41]: > 100 µM
TGI [54]: > 100 µM
TGI [43]: > 100 µM
TGI [55]: > 100 µM
TGI [44]: > 100 µM
TGI [56]: > 100 µM
TGI [45]: > 100 µM
TGI [46]: > 100 µM

Oc1ccc(Cl)cc1C1=N/C(=N\CN2CCN(C/N=C3/N=C(c4cc(Cl)ccc4O)CC(c4ccccc4)N3)CC2)NC(c2ccccc2)C1 (stereo unspecified)
TGI [47]: 65.4 µM
TGI [1]: > 100 µM
TGI [57]: > 100 µM
TGI [48]: 75.6 µM
TGI [2]: > 100 µM
TGI [3]: 97.6 µM
TGI [4]: > 100 µM
TGI [5]: > 100 µM
TGI [6]: > 100 µM
TGI [49]: > 100 µM
TGI [7]: > 100 µM
TGI [8]: 46.3 µM
TGI [9]: > 100 µM
TGI [10]: > 100 µM
TGI [11]: > 100 µM
TGI [50]: > 100 µM
TGI [12]: > 100 µM
TGI [51]: > 100 µM
TGI [13]: > 100 µM
TGI [14]: > 100 µM
TGI [15]: > 100 µM
TGI [52]: > 100 µM
TGI [16]: > 100 µM
TGI [17]: > 100 µM
TGI [18]: > 100 µM
TGI [19]: > 100 µM
TGI [20]: > 100 µM
TGI [21]: > 100 µM
TGI [22]: > 100 µM
TGI [23]: > 100 µM
TGI [24]: > 100 µM
TGI [26]: > 100 µM
TGI [27]: 55.4 µM
TGI [28]: 78 µM
TGI [29]: > 100 µM
TGI [30]: > 100 µM
TGI [31]: > 100 µM
TGI [32]: 76.1 µM
TGI [33]: 43.3 µM
TGI [53]: > 100 µM
TGI [34]: 91.7 µM
TGI [59]: > 100 µM
TGI [35]: > 100 µM
TGI [36]: > 100 µM
TGI [37]: > 100 µM
TGI [38]: > 100 µM
TGI [39]: 64.3 µM
TGI [40]: > 100 µM
TGI [41]: 96.8 µM
TGI [42]: > 100 µM
TGI [54]: > 100 µM
TGI [55]: > 100 µM
TGI [44]: > 100 µM
TGI [56]: > 100 µM
TGI [45]: > 100 µM
TGI [46]: > 100 µM
